Results on 28 molecules are retold here after ChEMBL document CHEMBL5241063, “Synthetic and medicinal perspective of quinolines as antiviral agents” (Eur J Med Chem, 2021).

Broadly, the IC50 is the concentration at which inhibition is half-maximal. Broadly, the CC50 is the concentration that lowers cell viability or growth by half. A word on the EC50: it is the concentration at which the effect is half-maximal.

Data set [1] is described as follows: Inhibition of HIV-1 integrase. Also on record: species or system Human immunodeficiency virus 1.
For data set [2], the target named is Human immunodeficiency virus type 1 reverse transcriptase (Human immunodeficiency virus 1, UniProt Q72547). As to the kind of experiment: Inhibition of HIV-1 reverse transcriptase incubated for 90 mins by liquid scintillation counting analysis.
A short description of data set [3]: Cytotoxicity against human RD cells by neutral red method. The data set is classed as toxicity, cell-based.
In another data set the test system is Vero. As to the kind of experiment: Cytotoxicity against african green monkey Vero cells incubated for 48 hrs. The data set is classed as toxicity, cell-based. The following applies: chlorocebus sabaeus, vero, 48 h.
For a further data set, the system named is SNB-19. As to the kind of experiment: Cytotoxicity against human SNB-19 cells incubated for 24 hrs. The data set is classed as toxicity, cell-based. The settings on record: snb-19, 24 h.
Data set [4] has as its system Human immunodeficiency virus 1. Nature of the data set: Antiviral activity against HIV-1 IIIB infected in human MT2 cells assessed as inhibition of viral replication by p24 ELISA method. The data set is classed as functional, organism-based. The following applies: Human immunodeficiency virus 1, IIIB. (In an ELISA, binding on a coated surface is turned into a signal by an enzyme label.)

In data set [5] the test system is Human immunodeficiency virus 1. As to the kind of experiment: Antiviral activity against HIV-1 92US657 infected in human MT2 cells assessed as inhibition of viral infection. It is filed as functional, organism-based. The following applies: Human immunodeficiency virus 1, 92US657, MT2.
Data set [6] has as its system Human immunodeficiency virus 1. As to the kind of experiment: Antiviral activity against HIV-1 infected in human HeLa P4 cells assessed as inhibition of viral particles production. The data set is classed as functional, organism-based. The settings on record: Human immunodeficiency virus 1, HeLaP4.
Another data set deals with enterovirus D68. As to the kind of experiment: Antiviral activity against Enterovirus D68 US/KY/14-18953 infected in human RD cells assessed as reduction in virus induced cytopathic effect. It is filed as functional, organism-based. The following applies: Enterovirus D, US/KY/14-18953, RD. Background: Cytopathic effects are the visible damage that an infection or toxin causes in cultured cells.

Data set [7] can be described thus: Selectivity index, ratio of CC50 for cytotoxicity against human RD cells to EC50 for antiviral activity against Enterovirus D68 US/KY/14-18953 infected in human RD cells. The data set is classed as toxicity, cell-based. The following applies: read-out: Ratio CC50/EC50.
Data set [8] concerns Human immunodeficiency virus 1. As to the kind of experiment: Anti-HIV activity against HIV-1 NL4.3 infected in human MT2 cells measured after 7 days by MTT assay. It is filed as functional, organism-based. The settings on record: Human immunodeficiency virus 1, NL4.3, MT2, 168 h.
Data set [9] has as its system Human immunodeficiency virus 1. Nature of the data set: Anti-HIV activity against HIV-1 NL4.3 infected in human MT2 cells measured after 48 hrs by luminescence based assay. The data set is classed as functional, organism-based. The following applies: Human immunodeficiency virus 1, NL4.3, MT2, 48 h.
A short description of data set [10]: Selectivity index, ratio of CC50 for cytotoxicity against human Huh-7 cells to IC50 for antiviral activity against recombinant VSV-deltaG pseudotyped GFP-tagged EBOV infected in human Huh-7 cells. It is filed as toxicity, cell-based. The settings on record: read-out: Ratio CC50/IC50.
The next data set has as its system Ebolavirus. As to the kind of experiment: Antiviral activity against recombinant VSV-deltaG pseudotyped GFP-tagged EBOV infected in human Huh-7 cells preincubated with cells for 1 hr followed by viral infection and measured after 16 hrs by […] assay. The data set is classed as functional, organism-based. The settings on record: Orthoebolavirus.
The test system of data set [11] is Human immunodeficiency virus 1. As to the kind of experiment: Antiviral activity against HIV-1 infected in human CEM-SS cells assessed as reduction in virus induced cytopathic effect by XTT assay. The following applies: Human immunodeficiency virus 1, CEM-SS. It is filed as functional, organism-based.
Data set [12] is described as follows: Cytotoxicity against human CEM-SS cells assessed as inhibition of cell growth. It is filed as toxicity, cell-based.

The molecule `O=C(NNc1ccc([N+](=O)[O-])cc1[N+](=O)[O-])c1ccc2ccc(C(=O)O)c(O)c2n1` registered an IC50 in data set [1] of 3000 nM.
Regarding `COc1cc(/C=C/c2ccc3ccc(C(=O)O)c(O)c3n2)cc(O)c1O`, in data set [1], the IC50 was 700 nM.
`O=C(O)c1ccc2ccc(/C=C/c3ccc(O)c(O)c3)nc2c1O` gave an IC50 in data set [1] of 2400 nM.
For `O=C(O)c1ccc2ccc(/C=C/c3ccccc3)nc2c1O`, in data set [1], half-maximal inhibition (IC50) was put at 5300 nM.
In data set [2], `CC(C)[C@H]1C(=O)OC[C@@H](NC(=O)c2nc3ccccc3cc2O)C(=O)N2CCCC[C@H]2C(=O)NCC(=O)N(C)CC(=O)N(C)[C@@H](C(C)C)C(=O)OC[C@@H](NC(=O)c2nc3ccccc3cc2O)C(=O)N2CCCC[C@H]2C(=O)NCC(=O)N(C)CC(=O)N1C` displayed an IC50 of 0.13 nM.
In data set [3], `CCN(CC)CCNC(=O)c1cc(OC(C)C)nc2ccccc12` registered a CC50 of 11200 nM.
For `C=C1CC[C@@H]2[C@](C)(CO)[C@H](O)CC[C@@]2(C)[C@@H]1C/C=C1/C(=O)OC[C@@H]1Oc1c(Cl)cc(Cl)c2cccnc12`, the CC50 with Vero and in the data set on SNB-19 was above 100000 nM in each case.
In the case of `C=C1CC[C@@H]2[C@](C)(CO)[C@H](O)CC[C@@]2(C)[C@@H]1C/C=C1/C(=O)OC[C@@H]1Oc1cccc2ccc(C)nc12`, the CC50 with SNB-19 was above 100000 nM.
As for `Cc1cccc2cc(/C=C3\NC(=O)N(Cc4ccccc4)C3=O)c(Cl)nc12`, the values for the EC50 in data set [4] and in data set [5] were 148 nM and 520 nM, respectively.
Take `COc1cc(/C=C/c2ccc3c(C(=O)O)cc(C(=O)O)c(O)c3c2)cc(O)c1O`: the IC50 in data set [6] is 1600 nM.
Regarding `CN(C)CCNC(=O)c1cc(Oc2ccccc2)nc2ccccc12`, the EC50 in the data set with enterovirus D68 was determined as 400 nM. Moreover, in data set [7], the selectivity ratio came out at 184. In [3], this molecule gave a CC50 of 73700 nM.
Turning to `COc1nc2ccccc2cc1/C=C1\NC(=O)N(Cc2ccccc2)C1=O`, the values for the EC50 in [4] and in data set [5] were 1410 nM and 520 nM, respectively.
Regarding `Cc1ccc2cc(/C=C3\NC(=O)N(Cc4ccccc4)C3=O)c(Cl)nc2c1`, the EC50 in [4] was determined as 710 nM; in [5], 520 nM.
The like results for `COc1ccc2nc(OC)c(/C=C3\NC(=O)N(CCc4ccccc4)C3=O)cc2c1` were, in that order, 1510 nM and 520 nM.
For the molecule `O=C1N/C(=C\c2cc3ccccc3nc2Cl)C(=O)N1Cc1ccccc1`, the values for the EC50 in [4] and in [5] were 50600 nM and 520 nM, respectively.
For `COc1ccc2cc(/C=C3\NC(=O)N(CCc4ccccc4)C3=O)c(Cl)nc2c1`, in that order: 460 nM and 520 nM.
As for `COc1ccc2nc(Cl)c(/C=C3\NC(=O)N(Cc4ccccc4)C3=O)cc2c1`, the EC50 in [4] was 1960 nM; in [5], 520 nM.
For the molecule `Cc1ccc2cc(/C=C3\NC(=O)N(CCc4ccccc4)C3=O)c(Cl)nc2c1`, the EC50 in data set [4] was 2550 nM; in data set [5], 520 nM.
On to `COc1cc(OC)c2ccc(-c3cccc([N+](=O)[O-])c3)nc2c1`, for which, in data set [8], 18500 nM corresponded to half-maximal inhibition (IC50).
Consider `COc1cc2c(c(OC)c1)[C@@H](N1CCCC1=O)C[C@@H](c1cccc(N)c1)N2`, for which the IC50 in [9] stood at 50000 nM.
As to `CCN(CC)Cc1cc(Nc2ccnc3cc(I)ccc23)ccc1O`, the selectivity ratio in data set [10] was above 130. Besides, the IC50 in the data set on Ebolavirus came to 640 nM.
In turn, `Nc1cccc([C@@H]2C[C@H](N3CCCC3=O)c3ccccc3N2)c1` yielded an IC50 in [9] of 50000 nM.
Turning to `O=C1N/C(=C\c2cc3ccccc3nc2Cl)C(=O)N1CCc1ccccc1`, the EC50 in data set [4] turned out to be 2920 nM; in data set [5], 520 nM.
In the case of `Cc1ccc2nc(Cl)c(/C=C3\NC(=O)N(Cc4ccccc4)C3=O)cc2c1`, the EC50 was determined as 5540 nM in data set [4] and 520 nM in [5].
Regarding `CN(C)CCNC(=O)c1cc(Oc2ccccc2)nc2ccc(F)cc12`, the EC50 in the data set with enterovirus D68 came to 600 nM.
As to `O=C1N/C(=C\c2cccc3ccccc23)C(=O)N1CCc1ccccc1`, the EC50 in data set [4] was determined as 1930 nM; in data set [5], 520 nM.
As for `Cc1ccc2nc(Cl)c(/C=C3\NC(=O)N(CCc4ccccc4)C3=O)cc2c1`, the EC50 in data set [4] was determined as 22800 nM; in [5], 500 nM.
Turning to `C=CC(C)(C)C1(CC=C(C)C)C(=O)Nc2ccccc2C1OCC=C(C)C` (stereo not given), the half-maximal effective concentration (EC50) in data set [11] turned out to be 1640 nM. Further, the IC50 in data set [12] came to 26900 nM.
